System: plants
Assay: Test D pre-emergence, other plants of Tables D1 and D3
Type: in vivo
Conditions: preemergent, 20 DAA
Procedure, shortened: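 Seeds treated with herbicide safener; sown in soil; glasshouse, 16 h light, 65% humidity. Sprayed day 1 (pre) or ~day 12 (post). Spray in 0.2% v/v adjuvant. Scored 0–100 damage: 20 DAA pre, 15 d post.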

CN1CC(c2cc(C(F)(F)F)n(C)n2)C(C(=O)Nc2cccc(F)c2C(F)(F)F)C1=O (racemic) [Compound 19]
damage to plant (100=total damage to plant; 0=no damage to plant), ABUTH (rate 15): 0 | damage to plant (100=total damage to plant; 0=no damage to plant), ABUTH (rate 30): 0 | damage to plant (100=total damage to plant; 0=no damage to plant), ABUTH (rate 60): 0 | damage to plant (100=total damage to plant; 0=no damage to plant), ABUTH (rate 130): 0 | damage to plant (100=total damage to plant; 0=no damage to plant), ABUTH (rate 250): 0 | damage to plant (100=total damage to plant; 0=no damage to plant), ABUTH (rate 500): 10 | damage to plant (100=total damage to plant; 0=no damage to plant), AMARE (rate 15): 0 | damage to plant (100=total damage to plant; 0=no damage to plant), AMARE (rate 30): 0 | damage to plant (100=total damage to plant; 0=no damage to plant), AMARE (rate 60): 0 | damage to plant (100=total damage to plant; 0=no damage to plant), AMARE (rate 130): 0 | damage to plant (100=total damage to plant; 0=no damage to plant), AMARE (rate 250): 0 | damage to plant (100=total damage to plant; 0=no damage to plant), AMARE (rate 500): 0 | damage to plant (100=total damage to plant; 0=no damage to plant), BIDPI (rate 15): 0 | damage to plant (100=total damage to plant; 0=no damage to plant), BIDPI (rate 30): 0 | damage to plant (100=total damage to plant; 0=no damage to plant), BIDPI (rate 60): 0 | damage to plant (100=total damage to plant; 0=no damage to plant), BIDPI (rate 130): 0 | damage to plant (100=total damage to plant; 0=no damage to plant), BIDPI (rate 250): 0 | damage to plant (100=total damage to plant; 0=no damage to plant), BIDPI (rate 500): 0 | damage to plant (100=total damage to plant; 0=no damage to plant), BRAPL (rate 15): 0 | damage to plant (100=total damage to plant; 0=no damage to plant), BRAPL (rate 30): 40 | damage to plant (100=total damage to plant; 0=no damage to plant), BRAPL (rate 60): 70 | damage to plant (100=total damage to plant; 0=no damage to plant), BRAPL (rate 130): 80 | damage to plant (100=total damage to plant; 0=no damage to plant), BRAPL (rate 250): 80 | damage to plant (100=total damage to plant; 0=no damage to plant), BRAPL (rate 500): 90 | damage to plant (100=total damage to plant; 0=no damage to plant), CYPES (rate 15): 0 | damage to plant (100=total damage to plant; 0=no damage to plant), CYPES (rate 30): 0 | damage to plant (100=total damage to plant; 0=no damage to plant), CYPES (rate 60): 0 | damage to plant (100=total damage to plant; 0=no damage to plant), CYPES (rate 130): 0 | damage to plant (100=total damage to plant; 0=no damage to plant), CYPES (rate 250): 0 | damage to plant (100=total damage to plant; 0=no damage to plant), CYPES (rate 500): 0 | damage to plant (100=total damage to plant; 0=no damage to plant), DIGSA (rate 15): 70 | damage to plant (100=total damage to plant; 0=no damage to plant), DIGSA (rate 30): 90 | damage to plant (100=total damage to plant; 0=no damage to plant), DIGSA (rate 60): 90 | damage to plant (100=total damage to plant; 0=no damage to plant), DIGSA (rate 130): 90 | damage to plant (100=total damage to plant; 0=no damage to plant), DIGSA (rate 250): 90 | damage to plant (100=total damage to plant; 0=no damage to plant), DIGSA (rate 500): 100 | damage to plant (100=total damage to plant; 0=no damage to plant), ECHCG (rate 15): 0 | damage to plant (100=total damage to plant; 0=no damage to plant), ECHCG (rate 30): 20 | damage to plant (100=total damage to plant; 0=no damage to plant), ECHCG (rate 60): 80 | damage to plant (100=total damage to plant; 0=no damage to plant), ECHCG (rate 130): 90 | damage to plant (100=total damage to plant; 0=no damage to plant), ECHCG (rate 250): 90 | damage to plant (100=total damage to plant; 0=no damage to plant), ECHCG (rate 500): 90 | damage to plant (100=total damage to plant; 0=no damage to plant), ELEIN (rate 15): 0 | damage to plant (100=total damage to plant; 0=no damage to plant), ELEIN (rate 30): 0 | damage to plant (100=total damage to plant; 0=no damage to plant), ELEIN (rate 60): 0 | damage to plant (100=total damage to plant; 0=no damage to plant), ELEIN (rate 130): 0 | damage to plant (100=total damage to plant; 0=no damage to plant), ELEIN (rate 250): 0 | damage to plant (100=total damage to plant; 0=no damage to plant), ELEIN (rate 500): 0 | damage to plant (100=total damage to plant; 0=no damage to plant), EPHHL (rate 15): 0 | damage to plant (100=total damage to plant; 0=no damage to plant), EPHHL (rate 30): 0 | damage to plant (100=total damage to plant; 0=no damage to plant), EPHHL (rate 60): 0 | damage to plant (100=total damage to plant; 0=no damage to plant), EPHHL (rate 130): 0 | damage to plant (100=total damage to plant; 0=no damage to plant), EPHHL (rate 250): 0 | damage to plant (100=total damage to plant; 0=no damage to plant), EPHHL (rate 500): 0 | damage to plant (100=total damage to plant; 0=no damage to plant), GLXMA (rate 15): 0 | damage to plant (100=total damage to plant; 0=no damage to plant), GLXMA (rate 30): 0 | damage to plant (100=total damage to plant; 0=no damage to plant), GLXMA (rate 60): 0 | damage to plant (100=total damage to plant; 0=no damage to plant), GLXMA (rate 130): 0 | damage to plant (100=total damage to plant; 0=no damage to plant), GLXMA (rate 250): 0 | damage to plant (100=total damage to plant; 0=no damage to plant), GLXMA (rate 500): 0 | damage to plant (100=total damage to plant; 0=no damage to plant), IPOHE (rate 15): 0 | damage to plant (100=total damage to plant; 0=no damage to plant), IPOHE (rate 30): 0 | damage to plant (100=total damage to plant; 0=no damage to plant), IPOHE (rate 60): 0 | damage to plant (100=total damage to plant; 0=no damage to plant), IPOHE (rate 130): 0 | damage to plant (100=total damage to plant; 0=no damage to plant), IPOHE (rate 250): 0 | damage to plant (100=total damage to plant; 0=no damage to plant), IPOHE (rate 500): 0 | damage to plant (100=total damage to plant; 0=no damage to plant), ORYSA (rate 15): 0 | damage to plant (100=total damage to plant; 0=no damage to plant), ORYSA (rate 30): 0 | damage to plant (100=total damage to plant; 0=no damage to plant), ORYSA (rate 60): 0 | damage to plant (100=total damage to plant; 0=no damage to plant), ORYSA (rate 130): 0 | damage to plant (100=total damage to plant; 0=no damage to plant), ORYSA (rate 250): 0 | damage to plant (100=total damage to plant; 0=no damage to plant), ORYSA (rate 500): 0 | damage to plant (100=total damage to plant; 0=no damage to plant), PANMI (rate 15): 0 | damage to plant (100=total damage to plant; 0=no damage to plant), PANMI (rate 30): 0 | damage to plant (100=total damage to plant; 0=no damage to plant), PANMI (rate 60): 0 | damage to plant (100=total damage to plant; 0=no damage to plant), PANMI (rate 130): 0 | damage to plant (100=total damage to plant; 0=no damage to plant), PANMI (rate 250): 0 | damage to plant (100=total damage to plant; 0=no damage to plant), PANMI (rate 500): 0 | damage to plant (100=total damage to plant; 0=no damage to plant), SETFA (rate 15): 0 | damage to plant (100=total damage to plant; 0=no damage to plant), SETFA (rate 30): 60 | damage to plant (100=total damage to plant; 0=no damage to plant), SETFA (rate 60): 80 | damage to plant (100=total damage to plant; 0=no damage to plant), SETFA (rate 130): 90 | damage to plant (100=total damage to plant; 0=no damage to plant), SETFA (rate 250): 90 | damage to plant (100=total damage to plant; 0=no damage to plant), SETFA (rate 500): 90 | damage to plant (100=total damage to plant; 0=no damage to plant), SORVU (rate 15): 0 | damage to plant (100=total damage to plant; 0=no damage to plant), SORVU (rate 30): 0 | damage to plant (100=total damage to plant; 0=no damage to plant), SORVU (rate 60): 0 | damage to plant (100=total damage to plant; 0=no damage to plant), SORVU (rate 130): 0 | damage to plant (100=total damage to plant; 0=no damage to plant), SORVU (rate 250): 0 | damage to plant (100=total damage to plant; 0=no damage to plant), SORVU (rate 500): 0

Source: patent US20220281848A1, “PYRAZOLE-SUBSTITUTED PYRROLIDINONES AS HERBICIDES” (FMC Corporation, priority 2019, published 2022)
